Reference: paper PMC2686105, “Role of the stage-regulated nucleoside transporter TbNT10 in differentiation and adenosine uptake in Trypanosoma brucei” (Molecular and Biochemical Parasitology, 2007)

Target: T1, TbNT10 (Trypanosoma brucei, UniProt Q38EK0)
T1 construct: gene Tb09.160.5480; endogenous in procyclic forms and re-expressed (addback clone A) from an EP procyclin locus in the TbNT10 null mutant
Experiment: 3H-adenosine uptake; wild type, null mutant and addback procyclic cells
Assay type: cell-based
Details: procyclic forms; 5 min; labelled compound; transporter activity judged by null mutant versus addback

T1 sequence (Q38EK0 entry or part of it): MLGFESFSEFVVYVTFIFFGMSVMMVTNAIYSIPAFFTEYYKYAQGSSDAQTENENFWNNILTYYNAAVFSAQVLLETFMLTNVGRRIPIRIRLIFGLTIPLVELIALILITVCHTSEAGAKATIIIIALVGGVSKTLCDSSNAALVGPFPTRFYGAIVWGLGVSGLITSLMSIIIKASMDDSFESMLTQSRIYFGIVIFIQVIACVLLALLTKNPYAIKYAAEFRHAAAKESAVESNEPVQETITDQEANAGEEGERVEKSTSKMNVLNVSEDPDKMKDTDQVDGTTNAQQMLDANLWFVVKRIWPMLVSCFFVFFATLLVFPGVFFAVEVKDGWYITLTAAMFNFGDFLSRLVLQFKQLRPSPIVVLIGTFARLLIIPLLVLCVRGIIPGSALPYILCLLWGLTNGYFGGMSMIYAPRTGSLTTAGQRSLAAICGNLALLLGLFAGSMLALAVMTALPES

With `Nc1ncnc2c1ncn2[C@@H]1O[C@H](CO)[C@@H](O)[C@H]1O` [adenosine] the “3H-adenosine uptake; wild type, null mutant and addback procyclic cells” value was “it is the main transporter for adenosine in this life cycle stage”.
